“Also recorded” adds a separate entry of the source.
How the values were obtained:
Shp1 = biological target: T1, Shp1 (Homo sapiens, UniProt P29350); test: Isothermal titration calorimetry, Shp1 WT; format: binding; conditions: Ins4P 50 µM (Fig. S2)
T1 construct: the C-terminal truncated form of human Shp1 cDNA (His-Shp1; amino acids 1–529); made in house; host or cells: E. coli BL21(DE3)
T1 sequence (P29350 1-529 isoform P29350-3): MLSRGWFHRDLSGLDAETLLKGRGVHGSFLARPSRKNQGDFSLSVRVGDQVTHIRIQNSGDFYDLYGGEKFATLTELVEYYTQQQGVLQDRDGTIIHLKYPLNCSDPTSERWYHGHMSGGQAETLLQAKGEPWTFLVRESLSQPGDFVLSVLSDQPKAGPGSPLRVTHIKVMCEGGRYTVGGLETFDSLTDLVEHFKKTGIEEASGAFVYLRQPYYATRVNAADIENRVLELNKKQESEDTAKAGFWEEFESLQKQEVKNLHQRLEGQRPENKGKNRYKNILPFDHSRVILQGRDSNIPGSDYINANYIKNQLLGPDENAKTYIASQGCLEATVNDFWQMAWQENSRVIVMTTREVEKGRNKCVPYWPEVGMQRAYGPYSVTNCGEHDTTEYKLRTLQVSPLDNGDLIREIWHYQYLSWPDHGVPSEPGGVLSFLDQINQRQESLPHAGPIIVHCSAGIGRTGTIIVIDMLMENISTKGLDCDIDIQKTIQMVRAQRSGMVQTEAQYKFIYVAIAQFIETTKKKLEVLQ
Experimental: ITC measurements were performed by using a Nano-ITC III (TA instruments, New Castle, DE, USA) with a reaction cell volume of 1 ml kept at 25 °C. A protein solution of 10 μM was titrated into the calorimetric cell with a solution of 50–100 μM of the ligand GroPIns4P (Ins4P) in the syringe. A sequence of 16 injections of 15 μL volume was programmed with a stirring speed of 250 rpm at 500 s intervals. Protein samples were prepared with protein solutions at 25 °C in 20 mM Tris buffer pH 7.4 with 50 mM NaCl and 1 mM TCEP. To minimise the differences in buffer composition and pH between cell and syringe, both ligand and protein solutions were prepared with the same batch of buffer. The heat of dilution of the GroPIns4P into the buffer solution was measured in a separate experiment and appropriate corrections were made. The heat evolved after each ligand injection was obtained from the integral of the calorimetric signal. Raw data were integrated, corrected for non-specific heats and normalized for concentration. The equilibrium dissociation constant (KD), binding enthalpy (ΔbH) and binding stoichiometry (n) were obtained by nonlinear regression of the experimental data using a model of independent binding sites, by means of the NanoAnalyze software. Experiments were performed in duplicate.

actin cytoskeleton = test system: actin cytoskeleton; design: method as in PMID 12589050; conditions: cited from earlier work
NIH3T3 cells [1] = test: Wound-healing assay; format: cell-based; conditions: for effect on GroPIns4P-stimulated wound closure: 50 μM GroPIns4P
Experimental: To perform the wound-healing assay, NIH3T3 cells were seeded in 6-well tissue culture plates to a final density of 3 × 10^5 cells/well and maintained at 37 °C and 5% CO2 for 24 h until confluence before being starved overnight in DMEM containing 1% bovine serum. The cell monolayer was wounded by scratching with a 10 μL standard sterile pipette tip. The scratched monolayer was rinsed twice with DMEM containing 1% bovine serum to remove cell debris and incubated with or without 50 μM GroPIns4P. […] In detail, the input image was processed by applying a Sobel edge detector [26], obtaining a gradient image. A threshold process was then performed on the gradient image to obtain the foreground corresponding to the wound area. Particularly, all of the pixels of the gradient image with values less than the threshold θ were assumed to be pixels of the foreground (experimentally, θ is set to 4). Finally, procedures based on morphological operations were used to remove small regions and to fill holes of the wound area to complete detection and analysis.

NIH3T3 cells [2] = test: Immunofluorescence analysis for membrane ruffling; format: cell-based; conditions: for effect of pre-treatment on peripheral ruffles in response to GroPIns4P: with 50 μM GroPIns4P for 5 min
Experimental: NIH3T3 and Raw 264.7 cells were cultured in DMEM supplemented with 2 mM L-glutamine, 50 U/mL penicillin, […] streptomycin, and 10% CS or heat-inactivated FBS (30 min at 55 °C), respectively. NIH3T3 cells were transfected with different plasmids using the Lipofectamine LTX/plus reagent according to the manufacturer’s instructions. For immunofluorescence experiments, NIH3T3 cells were seeded onto glass coverslips in 24-well plates at a concentration suitable for 70% confluence without transfection or 50% confluence in the case of Lipofectamine-based cell transfection. In the latter, approximately 24 h after seeding, NIH3T3 cells were transiently transfected with different plasmids with the Lipofectamine LTX/plus reagent following the manufacturer’s instructions. Before treatments, NIH3T3 cells were serum-starved in DMEM with 2 mM glutamine, 50 U/mL penicillin and streptomycin for 16–20 h. The cells were then treated with different stimuli and/or inhibitors, as indicated in the text and/or Figure legends. Addition of exogenous GroPIns4P was at 50 μM (unless otherwise indicated), a concentration eliciting an intracellular concentration of about 1.5 μM, as calculated from the Nernst equation (with T = 300 K, z = − 3, and Veq = − 30 mV, an average value for cultured, non-excitable cells).
For ruffle assessment after treatments, immunofluorescence labelling and morphological analysis of the cells were performed as previously described in a double-blind fashion. In brief, the assessment was based on a null score (zero) for the absence of the feature, followed by a score of one or two according to the level of response of each individual cell, where one indicate that ruffling was confined to one area of the cell (< 25% of the cell circumference), and two indicate that two or more discrete areas of the cell contained ruffles. The cell phenotypes were quantified by counting 150 cells in each sample. The data were then expressed as percentage scores (±SD) for each treatment response compared with its respective control. Scoring of the control cells was performed in the same way to evaluate the presence of the features of interest in untreated cells.

O=P(O)(O)OC1[C@@H](O)[C@@H](O)C(O)[C@H](O)[C@H]1O (stereo partly shown) [Ins4P, Inositol 4-phosphate, reference compound]
binding to Shp1 by ITC (Shp1): did not indicate any specific binding; also recorded: no binding was resolved
effect on actin cytoskeleton organisation (actin cytoskeleton): no effect

O=S(=O)(O)c1ccc2cc(N=Nc3cc(S(=O)(=O)O)c4cccnc4c3O)ccc2c1 [NSC-87877]
reduction of EGF-induced cell migration (NIH3T3 cells [1]; 100 μM, EGF 10 ng/ml): ~100%
effect on GroPIns4P-stimulated wound closure (NIH3T3 cells [1]; pre-treatment 100 μM): completely abrogated
effect of pre-treatment on peripheral ruffles in response to GroPIns4P (NIH3T3 cells [2]): strongly impair

O=C1C=CC(=O)C(c2cc(Cl)ccc2Cl)=C1 [TPI-1]
reduction of EGF-induced cell migration (NIH3T3 cells [1]; 25 μM, EGF 10 ng/ml): 50%
effect on GroPIns4P-stimulated wound closure (NIH3T3 cells [1]; pre-treatment 25 μM): completely abrogated
effect of pre-treatment on peripheral ruffles in response to GroPIns4P (NIH3T3 cells [2]): strongly impair

CCCCC/C=C\C/C=C\C/C=C\C/C=C\CCCC(=O)O [arachidonic acid]
effect on EGF-induced cell motility (NIH3T3 cells [1]; 10–50 μM): did not affect
effect when combined with the PLA2 inhibitor in EGF-stimulated cells (NIH3T3 cells [1]; EGF 10 ng/ml, cPLA2α inhibitor, arachidonic acid): minor inhibitory effect

EGF: Epidermal growth factor
cell migration (NIH3T3 cells [1]; 10 ng/ml EGF): significant increase

PDGF
effect of Shp1-C455S overexpression on PDGF-induced ruffles (NIH3T3 cells [2]; 10 ng/ml PDGF): not affected
increase in ruffles versus the control (NIH3T3 cells [2]; 10 ng/ml PDGF for 5 min, positive control): 3.5–4 fold
